Reference: patent US20230102554A1 (GB002, INC., priority 2019, published 2023)

Legend:
[1] = target: T1, Human PDGFRα, cytoplasmic domain (GST-PDGFRα) (Homo sapiens, UniProt P16234); assay: Human PDGFRα biochemical inhibition assay (off-chip Mobility Shift Assay)
T1 construct: made in house

[2] = target: T2, Human PDGFRβ, cytoplasmic domain (GST-PDGFRβ) (Homo sapiens, UniProt P09619); assay: Human PDGFRβ biochemical inhibition assay (off-chip Mobility Shift Assay)
T2 construct: made in house
Method in brief: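 GST-tagged cytoplasmic domain (aa 557-1106) from baculovirus was incubated 1 h at room temperature with compound, CSKtide, ATP at Km and Mg²⁺ in HEPES buffer, pH 7.5. Phosphorylated and unphosphorylated peptide were separated by off-chip mobility shift, and the product ratio P/(P+S) gave percent inhibition.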

T1 sequence (P16234 550-1089 T674I): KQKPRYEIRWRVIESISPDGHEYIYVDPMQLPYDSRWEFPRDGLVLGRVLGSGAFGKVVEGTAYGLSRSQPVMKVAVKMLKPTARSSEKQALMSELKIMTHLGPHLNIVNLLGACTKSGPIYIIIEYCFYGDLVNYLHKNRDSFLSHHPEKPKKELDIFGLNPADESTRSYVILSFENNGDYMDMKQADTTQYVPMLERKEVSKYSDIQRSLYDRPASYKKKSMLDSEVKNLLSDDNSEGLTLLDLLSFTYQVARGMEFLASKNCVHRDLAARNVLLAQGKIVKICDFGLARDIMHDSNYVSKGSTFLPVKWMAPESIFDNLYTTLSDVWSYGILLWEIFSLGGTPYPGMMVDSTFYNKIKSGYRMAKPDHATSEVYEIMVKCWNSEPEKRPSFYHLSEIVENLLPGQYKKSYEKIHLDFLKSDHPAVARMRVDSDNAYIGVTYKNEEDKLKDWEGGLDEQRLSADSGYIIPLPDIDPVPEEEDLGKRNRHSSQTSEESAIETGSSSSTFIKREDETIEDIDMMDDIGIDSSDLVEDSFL
T2 sequence (P09619 with tags, fused parts or gaps): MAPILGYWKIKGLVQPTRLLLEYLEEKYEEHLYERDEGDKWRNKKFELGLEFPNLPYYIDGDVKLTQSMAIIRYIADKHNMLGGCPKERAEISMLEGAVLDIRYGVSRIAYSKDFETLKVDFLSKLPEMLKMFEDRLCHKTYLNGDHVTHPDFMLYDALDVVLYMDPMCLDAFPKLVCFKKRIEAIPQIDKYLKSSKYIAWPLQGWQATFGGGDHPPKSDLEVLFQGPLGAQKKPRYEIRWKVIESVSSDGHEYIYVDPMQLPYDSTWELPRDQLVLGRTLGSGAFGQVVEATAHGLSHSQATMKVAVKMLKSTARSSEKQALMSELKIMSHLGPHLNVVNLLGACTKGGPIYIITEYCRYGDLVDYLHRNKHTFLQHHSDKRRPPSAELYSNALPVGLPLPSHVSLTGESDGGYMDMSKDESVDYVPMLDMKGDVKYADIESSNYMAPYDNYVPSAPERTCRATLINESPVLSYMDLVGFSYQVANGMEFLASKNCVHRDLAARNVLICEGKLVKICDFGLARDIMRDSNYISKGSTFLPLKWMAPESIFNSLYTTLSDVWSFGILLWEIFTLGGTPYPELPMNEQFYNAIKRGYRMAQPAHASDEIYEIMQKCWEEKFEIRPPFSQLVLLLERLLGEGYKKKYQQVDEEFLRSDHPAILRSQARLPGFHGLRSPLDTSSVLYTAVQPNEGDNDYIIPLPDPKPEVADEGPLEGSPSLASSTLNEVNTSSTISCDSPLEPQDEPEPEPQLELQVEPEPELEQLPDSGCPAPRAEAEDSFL

| IC50 [1] [µM] | IC50 [2] [µM] | SMILES |
| --- | --- | --- |
| < 0.3 | ≥ 1 | CCn1cc2ncc(N[C@@H](C)c3cccc(NC(=O)c4ccc(C(=O)N5CC[C@@H](N)C5)c(Cl)c4)c3)nc2n1 [Compound 467, 4-((R)-3-aminopyrrolidine-1-carbonyl)-3-chloro-N-(3-((5)-1-((2-ethyl-2H-pyrazolo[3,4-b]pyrazin-6-yl)amino)ethyl)phenyl)benzamide] |
| < 0.3 | < 0.3 | Cc1cc(C(=O)Nc2cccc([C@H](C)Nc3cnc4cn[nH]c4n3)c2)cnc1C(F)(F)F [Compound 98, (S)-N-(3-(1-((1H-pyrazolo[3,4-b]pyrazin-6-yl)amino)ethyl)phenyl)-5-methyl-6-(trifluoromethyl)nicotinamide] |
| < 0.3 | < 0.3 | CCn1cc2ncc(N[C@@H](C)c3cccc(NC(=O)c4ccc(N5CCOCC5)c(C)c4)c3)nc2n1 [Compound 386, (S)-N-(3-(1-((2-ethyl-2H-pvrazolo[3,4-b]pyrazin-6-yl)amino)ethyl)phenyl)-3-methyl-4-morpholinobenzamide] |
| < 0.3 | < 0.3 | Cc1cncc(C(=O)Nc2cccc([C@H](C)Nc3cnc4cc(F)ccc4n3)c2)c1 [Compound 40, (S)-N-(3-(1-((6-fluoroquinoxalin-2-yl)amino)ethyl)phenyl)-5-methylnicotinamide] |
| 0.3 to 1 | ≥ 1 | Cc1cncc(C(=O)Nc2cccc([C@H](C)Nc3cnc4ncccc4n3)c2)c1 [Compound 26, (S)-5-methyl-N-(3-(1-(pyrido[2,3-b]pyrazin-2-ylamino)ethyl)phenyl) nicotinamide] |
| 0.3 to 1 | 0.3 to 1 | CCn1cc2ncc(N[C@@H](C)c3cccc(NC(=O)c4cnc(C)s4)c3)nc2n1 [Compound 294, (S)-N-(3-(1-((2-ethyl-2H-pyrazolo[3,4-b]pyrazin-6-yl)amino)ethyl)phenyl)-2-methylthiazole-5-carboxamide] |
| < 0.3 | 0.3 to 1 | CCn1cc2ncc(N[C@@H](C)c3cccc(NC(=O)c4cncc(Cl)c4)c3)nc2n1 [Compound 281, (S)-5-chloro-N-(3-(1-((2-ethyl-2H-pyrazolo[3,4-b]pyrazin-6-yl)amino)ethyl)phenyl) nicotinamide] |
| < 0.3 | < 0.3 | C[C@H](Nc1cnc2cnn(C)c2n1)c1cccc(NC(=O)c2cnc(C(F)(F)F)s2)c1 [Compound 139, (S)-N-(3-(1-((1-methyl-1H-pyrazolo[3,4-b]pyrazin-6-yl)amino)ethyl)phenyl)-2-(trifluoromethyl)thiazole-5-carboxamide] |
| < 0.3 | < 0.3 | Cc1cncc(C(=O)Nc2cccc([C@H](C)Nc3cnc4cccc(Cl)c4n3)c2)c1 [Compound 37, (S)-N-(3-(1-((8-chloroquinoxalin-2-yl)amino)ethyl)phenyl)-5-methylnicotinamide] |
| < 0.3 | < 0.3 | CCn1cc2ncc(N[C@@H](C)c3cccc(NC(=O)c4ccc(CN5CCN(C)C(=O)C5)c(C)c4)c3)nc2n1 [Compound 479, (S)-N-(3-(1-((2-ethyl-2H-pyrazolo[3,4-b]pyrazin-6-yl)amino)ethyl)phenyl)-3-methyl-4-((4-methyl-3-oxopiperazin-1-yl)methyl)benzamide] |
| < 0.3 | < 0.3 | CCn1cc2ncc(N[C@@H](C)c3cccc(NC(=O)c4ccc(CN5CCC5)c(Cl)c4)c3)nc2n1 [Compound 486, (S)-4-(azetidin-1-ylmethyl)-3-chloro-N-(3-(1-((2-ethyl-2H-pyrazolo[3,4-b]pyrazin-6-yl)amino)ethyl)phenyl)benzamide] |
| < 0.3 | < 0.3 | CSc1cccc(C(=O)Nc2cccc([C@H](C)Nc3cnc4cnn(C)c4n3)c2)c1 [Compound 224, (S)-N-(3-(1-((1-methyl-1H-pyrazolo[3,4-b]pyrazin-6-yl)amino)ethyl)phenyl)-3-(methylthio)benzamide] |
| < 0.3 | < 0.3 | CCn1cc2ncc(N[C@@H](C)c3cccc(NC(=O)Cc4ccc(F)c(C)c4)c3)nc2n1 [Compound 632, (S)-N-(3-(1-((2-ethyl-2H-pyrazolo[3,4-b]pyrazin-6-yl)amino)ethyl)phenyl)-2-(4-fluoro-3-methylphenyl) acetamide] |
| < 0.3 | < 0.3 | CCn1cc2ncc(N[C@@H](C)c3cccc(NC(=O)c4cnc(OC)c(C)c4)c3)nc2n1 [Compound 290, (S)-N-(3-(1-((2-ethyl-2H-pyrazolo[3,4-b]pyrazin-6-yl)amino)ethyl)phenyl)-6-methoxy-5-methylnicotinamide] |
| < 0.3 | < 0.3 | Cc1cc(C(=O)Nc2cccc([C@H](C)Nc3cnc4[nH]cc(-c5cnn(C)c5)c4n3)c2)cnc1C(F)(F)F [Compound 576, (S)-5-methyl-N-(3-(1-((7-(1-methyl-1H-pyrazol-4-yl)-5H-pyrrolo[2,3-b]pyrazin-2-yl)amino)ethyl)phenyl)-6-(trifluoromethyl)nicotinamide] |
| < 0.3 | < 0.3 | CCn1cc2ncc(N[C@@H](C)c3cc(NC(=O)c4cnn(CCF)c4)ccc3F)nc2n1 [Compound 311, (S)-N-(3-(1-((2-ethyl-2H-pyrazolo[3,4-b]pyrazin-6-yl)amino)ethyl)-4-fluorophenyl)-1-(2-fluoroethyl)-1H-pyrazole-4-carboxamide] |
| < 0.3 | < 0.3 | CCn1cc2ncc(N[C@@H](C)c3cccc(NC(=O)c4ccc(OC)c(F)c4)c3)nc2n1 [Compound 359, (S)-N-(3-(1-((2-ethyl-2H-pyrazolo[3,4-b]pyrazin-6-yl)amino)ethyl)phenyl)-3-fluoro-4-methoxybenzamide] |
| < 0.3 | 0.3 to 1 | CCn1cc2ncc(N[C@@H](C)c3cc(NC(=O)Cc4cnc(C)c(F)c4)ccc3C)nc2n1 [Compound 707, (S)-N-(3-(1-((2-ethyl-2H-pyrazolo[3,4-b]pyrazin-6-yl)amino)ethyl)-4-methylphenyl)-2-(5-fluoro-6-methylpyridin-3-yl)acetamide] |
| < 0.3 | < 0.3 | CCn1cc2ncc(N[C@@H](C)c3cccc(NC(=O)Nc4cc(C)ccn4)c3)nc2n1 [Compound 735, (S)-1-(3-(1-((2-ethyl-2H-pyrazolo[3,4-b]pyrazin-6-yl)amino)ethyl)phenyl)-3-(4-methylpyridin-2-yl)urea] |
| < 0.3 | < 0.3 | CSc1cc(C(=O)Nc2cccc([C@H](C)Nc3cnc4cnn(C)c4n3)c2)ccc1Cl [Compound 236, (S)-4-chloro-N-(3-(1-((1-methyl-1H-pyrazolo[3,4-b]pyrazin-6-yl)amino)ethyl)phenyl)-3-(methylthio)benzamide] |
| < 0.3 | < 0.3 | COc1ccc2ncc(N[C@@H](C)c3cccc(NC(=O)c4cncc(C)c4)c3)nc2c1 [Compound 32, (S)-N-(3-(1-((7-methoxyquinoxalin-2-yl)amino)ethyl)phenyl)-5-methylnicotinamide] |
| 0.3 to 1 | ≥ 1 | CCn1cc2ncc(N[C@@H](C)c3cccc(NC(=O)c4cnc5cnn(C)c5c4)c3)nc2n1 [Compound 62, (S)-N-(3-(1-((2-ethyl-2H-pyrazolo[3,4-b]pyrazin-6-yl)amino)ethyl)phenyl)-1-methyl-1H-pyrazolo[4,3-b]pyridine-6-carboxamide] |
| < 0.3 | 0.3 to 1 | CCn1cc2ncc(N[C@@H](C)c3cccc(NC(=O)c4cnc(N5CCOCC5)s4)c3)nc2n1 [Compound 339, (S)-N-(3-(1-((2-ethyl-2H-pyrazolo[3,4-b]pyrazin-6-yl)amino)ethyl)phenyl)-2-morpholinothiazole-5-carboxamide] |
| < 0.3 | 0.3 to 1 | CCn1cc2ncc(N[C@@H](C)c3cccc(NC(=O)Cc4ccccc4)c3)nc2n1 [Compound 633, (S)-N-(3-(1-((2-ethyl-2H-pyrazolo[3,4-b]pyrazin-6-yl)amino)ethyl)phenyl)-2-phenylacetamide] |
| < 0.3 | < 0.3 | CCn1cc2ncc(N[C@@H](C)c3cccc(NC(=O)c4cc(F)c(CN5CC6(COC6)C5)c(Cl)c4)c3)nc2n1 [Compound 490, (S)-4-((2-oxa-6-azaspiro[3.3]heptan-6-yl)methyl)-3-chloro-N-(3-(1-((2-ethyl-2H-pyrazolo[3,4-b]pyrazin-6-yl)amino)ethyl)phenyl)-5-fluorobenzamide] |
| < 0.3 | < 0.3 | Cc1cncc(C(=O)Nc2cccc([C@H](C)Nc3cnc4cc(C)sc4c3)c2)c1 [Compound 18, (S)-5-methyl-N-(3-(1-((2-methylthieno[3,2-b]pyridin-6-yl)amino)ethyl)phenyl)nicotinamide] |
| < 0.3 | 0.3 to 1 | CCn1cc2ncc(N[C@@H](C)c3cc(NC(=O)Cc4ccc(C)cn4)ccc3C)nc2n1 [Compound 660, (S)-N-(3-(1-((2-ethyl-2H-pyrazolo[3,4-b]pyrazin-6-yl)amino)ethyl)-4-methylphenyl)-2-(5-methylpyridin-2-yl) acetamide] |
| < 0.3 | < 0.3 | Cc1n[nH]c2ncc(N[C@@H](C)c3cccc(NC(=O)c4ccc(C(F)(F)F)nc4)c3)nc12 [Compound 534, (S)-N-(3-(1-((3-methyl-1H-pyrazolo[3,4-b]pyrazin-5-yl)amino)ethyl)phenyl)-6-(trifluoromethyl)nicotinamide] |
| < 0.3 | ≥ 1 | CCn1cc2ncc(N[C@@H](C)c3cccc(NC(=O)Cc4ccc5c(n4)OCCC5)c3)nc2n1 [Compound 720, (S)-2-(3,4-dihydro-2H-pyrano[2,3-b]pyridin-7-yl)-N-(3-(1-((2-ethyl-2H-pyrazolo[3,4-b]pyrazin-6-yl)amino)ethyl)phenyl)acetamide] |
| < 0.3 | < 0.3 | COc1cc(C(=O)Nc2cccc([C@H](C)Nc3cnc4cnn(C)c4n3)c2)cnc1C [Compound 252, (S)-5-methoxy-6-methyl-N-(3-(1-((1-methyl-1H-pyrazolo[3,4-b]pyrazin-6-yl)amino)ethyl)phenyl)nicotinamide] |
